Measured values reported in the NIST ThermoML archive (doi:10.1016/j.jct.2012.05.002).
± gives the expanded uncertainty stated by the source.

Assay: Boiling temperature at pressure P
Details: 101.3 kPa; Liquid; Closed cell (Static) method

SMILES | Boiling temperature at pressure P [°C]
COC(=O)OC [dimethyl carbonate] | 64.69 ± 0.11
CO [methanol] | 90.26 ± 0.11
